Experimental data taken from US9567318B2, “Substituted pyrimidine compounds and uses thereof” (Memorial Sloan-Kettering Cancer Center, priority 2009, dated 2017).

Columns and labels:
[1] = system: MDA-MB-468 xenografted tumors; assay: Tumor xenografts; type: in vivo; conditions: i.t., alternate days, mice
Description: FIG. 12. YK5 affects the major hallmarks of cancer: inhibits proliferation and invasiveness and arrests cancer cells in the cell cycle. (a) The indicated cancer cells were incubated with increasing concentrations of inhibitors and growth over 72 h was assessed. Y-axis values below 0% represent cell death of the starting population. Drugs were assayed in triplicate. (b) Mice (n=5) bearing MDA-MB-468 subcutaneously (s.c.) xenografted tumors that reached a volume of approximately 100-200 mm^3, were administered i.t. YK5 or vehicle as described in Methods. Tumor volume (mm^3) was estimated from caliper measurements. (c) Cells were treated for 24 h with indicated concentrations of YK5. DNA content was analyzed by propidium iodide staining and flow cytometry (left), whereas proteins by western blotting (right). (d) Hsp70 client proteins isolated by YK55-beads from SKBr3 and MDA-MB-468 extracts (500 μg) were analyzed by western blotting. […] (e) MDA-MB-231 breast cancer cells were treated for 24 h with YK5 (1 μM) and protein extracts were subjected to immunoblotting (upper) or pre-treated for 24 h with vehicle or YK5, and viable cells able to migrate through Matrigel over a 20 h period were quantified and data graphed (lower). […]
Tumor Xenografts. […] Tumor volume was determined by measurement with Vernier calipers, and tumor volume was calculated as the product of its length×width^2×0.4. […]

[2] = target: T1, Human Hsc70 (Homo sapiens, UniProt P11142); assay: Hsc70 ATPase activity; type: biochemical; conditions: 100 μM, Hsc70 with co-chaperones, 30° C.
T1 construct: made in house
T1 sequence (P11142 whole entry): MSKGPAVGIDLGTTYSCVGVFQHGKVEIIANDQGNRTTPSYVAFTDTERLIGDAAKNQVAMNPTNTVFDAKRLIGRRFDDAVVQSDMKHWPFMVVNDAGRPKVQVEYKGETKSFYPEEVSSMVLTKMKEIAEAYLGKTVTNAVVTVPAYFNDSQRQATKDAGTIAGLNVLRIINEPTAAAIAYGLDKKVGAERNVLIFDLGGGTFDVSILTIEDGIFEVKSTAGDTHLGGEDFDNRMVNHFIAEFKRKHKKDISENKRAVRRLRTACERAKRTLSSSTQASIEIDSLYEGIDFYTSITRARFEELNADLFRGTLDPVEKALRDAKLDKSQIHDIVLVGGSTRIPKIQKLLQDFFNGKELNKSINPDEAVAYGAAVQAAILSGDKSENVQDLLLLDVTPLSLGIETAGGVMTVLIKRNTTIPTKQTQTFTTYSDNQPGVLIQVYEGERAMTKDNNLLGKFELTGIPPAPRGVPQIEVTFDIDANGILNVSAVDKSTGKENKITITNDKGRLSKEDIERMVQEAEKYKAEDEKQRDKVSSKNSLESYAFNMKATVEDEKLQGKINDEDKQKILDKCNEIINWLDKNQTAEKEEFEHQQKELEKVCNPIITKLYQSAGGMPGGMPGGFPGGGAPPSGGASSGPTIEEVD
Description: FIG. 6. YK5 inhibits core biochemical functions of Hsp70s and disrupts the Hsp90/Hsp70 interaction. a) Refolding of denatured luciferase by Hsc70 and DJA2 at 30° C. was measured for the indicated times in the presence of YK5 (100 μM) or vehicle (left), or at 60 min in the presence of indicated concentrations of YK5 (right). b) Hsc70 ATPase rates were measured for reactions at 30° C. with the indicated combinations of Hsc70 and co-chaperones in the presence of vehicle (DMSO) or YK5 (100 μM). ADP production was monitored by thin layer chromatography separation of radiolabeled ADP from ATP and phosphorimaging analysis (lower). […] Proteins isolated with anti-Hsp90 and Hsp70s antibodies (IP: Hsp90 or Hsp70), or present in the cell extract (Lysate) were analyzed by WB. […] Proteins were applied to a native gel and analyzed by immunoblotting. […]
Hsc70 ATPase Activity and Luciferase Refolding. Human Hsc70, DJA1/DNAJA1, DJA2/DNAJA2 and Hsp110/Hsp105/HSPH1 were purified and analyzed. […] Samples at time points were terminated with 37.5 mM EDTA and analyzed by thin layer chromatography on polyethylene-imine cellulose (Mallinckrodt Baker) developed in 0.5 M LiCl and 0.5 M formic acid. The ADP produced was determined by image phosphor quantitation and the linear enzymatic rates (Vmax) were calculated by regression analysis. […]

Q: What does the source list for `C=CC(=O)Nc1cc(N)nc(Sc2c(OC)nc(N3CCN(C)CC3)nc2OC)n1` [YK5, N-(6-amino-2-(4,6-dimethoxy-2-(4-methylpiperazin-1-yl)pyrimidin-5-ylthio)pyrimidin-4-yl)acrylamide]?
A: growth of xenografted tumors [1]: inhibited the growth of MDA-MB-468 xenografted tumors; stimulated ATPase rate of Hsc70 [2]: partially inhibited the stimulated ATPase rate of Hsc70
